According to ChEMBL document CHEMBL3885881, “DrugMatrix”:

Species on record: Rattus norvegicus
Test: DrugMatrix - Regimen: Daily Repeat
Assay type: toxicity, organism-based, Sprague-Dawley
Parameters: regimen Daily Repeat, gender Male, age 6-8 weeks
Conditions: in vivo, po, route oral GAVAGE, vehicle 100 % SALINE; for ABSOLUTE BASOPHIL / ABSOLUTE EOSINOPHIL / ABSOLUTE LYMPHOCYTE / ABSOLUTE MONOCYTE / ABSOLUTE SEGMENTED NEUTROPHIL / BASOPHIL / EOSINOPHIL / ERYTHROCYTE COUNT / HEMATOCRIT / HEMOGLOBIN / LEUKOCYTE COUNT / LYMPHOCYTE / MEAN CORPUSCULAR HEMOGLOBIN / MEAN CORPUSCULAR HEMOGLOBIN CONCENTRATION / MEAN CORPUSCULAR VOLUME / MONOCYTE / NEUTROPHIL / NUCLEATED RED BLOOD CELLS / PLATELET COUNT: tissue Blood; for ALANINE AMINOTRANSFERASE / ALBUMIN / ALKALINE PHOSPHATASE / ASPARTATE AMINOTRANSFERASE / BLOOD UREA NITROGEN / CARBON DIOXIDE / CHLORIDE / CHOLESTEROL / CREATINE PHOSPHOKINASE / CREATININE / GLUCOSE / LACTATE DEHYDROGENASE / LIPASE / PHOSPHORUS / POTASSIUM / SODIUM / TOTAL BILIRUBIN / TOTAL PROTEIN / URIC ACID: tissue Plasma
[1] = 3000 mg/kg, […], dose level Low, time 7 day
[2] = 6000 mg/kg, 72 h, dose level High, time 3 day
[3] = 6000 mg/kg, […], dose level High, time 7 day

For CCO [ALCOHOL], the “ABSOLUTE BASOPHIL” value [1] was 0 CELLS/uL, the “ABSOLUTE EOSINOPHIL” value [1] was 0 CELLS/uL and the “ABSOLUTE LYMPHOCYTE” value [1] was 9669 CELLS/uL. For the same molecule, the “ABSOLUTE MONOCYTE” value [1] was 317.33 CELLS/uL, the “ABSOLUTE SEGMENTED NEUTROPHIL” value [1] was 1063.67 CELLS/uL and the BASOPHIL [1] was 0%. The EOSINOPHIL [1] was 0%, the “ERYTHROCYTE COUNT” value [1] was 5.39 x10E6/uL and the HEMATOCRIT [1] was 34.88%. The HEMOGLOBIN [1] was 13.85 G/DL, the “LEUKOCYTE COUNT” value [1] was 11.05 x10E3/uL and the LYMPHOCYTE [1] was 87%. For the same molecule, the “MEAN CORPUSCULAR HEMOGLOBIN” value [1] was 25.73 pg, the “MEAN CORPUSCULAR HEMOGLOBIN CONCENTRATION” value [1] was 39.75 G/DL and the “MEAN CORPUSCULAR VOLUME” value [1] was 64.77 fL. For the same molecule, the MONOCYTE [1] was 2.83%, the NEUTROPHIL [1] was 10.17% and the “NUCLEATED RED BLOOD CELLS” value [1] was 0 /100WBC. The “PLATELET COUNT” value [1] was 1110 x10E3/uL, the “ALANINE AMINOTRANSFERASE” value [1] was 51.67 u/L and the ALBUMIN [1] was 4.5 G/DL. The “ALKALINE PHOSPHATASE” value [1] was 281.33 u/L, the “ASPARTATE AMINOTRANSFERASE” value [1] was 82.67 u/L and the “BLOOD UREA NITROGEN” value [1] was 15 mg/dL. The “CARBON DIOXIDE” value [1] was 31 mmol/L, the CHLORIDE [1] was 98.33 MEQ/L and the CHOLESTEROL [1] was 69.83 mg/dL. The “CREATINE PHOSPHOKINASE” value [1] was 250 u/L, the CREATININE [1] was 0.19 mg/dL and the GLUCOSE [1] was 135.67 mg/dL. For the same molecule, the “LACTATE DEHYDROGENASE” value [1] was 123.5 u/L, the LIPASE [1] was 10.17 u/L and the PHOSPHORUS [1] was 10.85 mg/dL. For the same molecule, the POTASSIUM [1] was 5.95 MEQ/L, the SODIUM [1] was 143.15 MEQ/L and the “TOTAL BILIRUBIN” value [1] was 0.22 mg/dL. For the same molecule, the “TOTAL PROTEIN” value [1] was 5.93 G/DL, the “URIC ACID” value [1] was 0.68 mg/dL and the “ABSOLUTE BASOPHIL” value [2] was 0 CELLS/uL. The “ABSOLUTE EOSINOPHIL” value [2] was 0 CELLS/uL, the “ABSOLUTE LYMPHOCYTE” value [2] was 11300.5 CELLS/uL and the “ABSOLUTE MONOCYTE” value [2] was 91.33 CELLS/uL. The “ABSOLUTE SEGMENTED NEUTROPHIL” value [2] was 1124.83 CELLS/uL, the BASOPHIL [2] was 0% and the EOSINOPHIL [2] was 0%. For the same molecule, the “ERYTHROCYTE COUNT” value [2] was 5.6 x10E6/uL, the HEMATOCRIT [2] was 35.9% and the HEMOGLOBIN [2] was 13 G/DL. For the same molecule, the “LEUKOCYTE COUNT” value [2] was 12.52 x10E3/uL, the LYMPHOCYTE [2] was 90.17% and the “MEAN CORPUSCULAR HEMOGLOBIN” value [2] was 23.25 pg. For the same molecule, the “MEAN CORPUSCULAR HEMOGLOBIN CONCENTRATION” value [2] was 36.23 G/DL, the “MEAN CORPUSCULAR VOLUME” value [2] was 64.17 fL and the MONOCYTE [2] was 0.67%. For the same molecule, the NEUTROPHIL [2] was 9.17%, the “NUCLEATED RED BLOOD CELLS” value [2] was 0 /100WBC and the “PLATELET COUNT” value [2] was 1089.17 x10E3/uL. For the same molecule, the “ALANINE AMINOTRANSFERASE” value [2] was 60.5 u/L, the ALBUMIN [2] was 4.18 G/DL and the “ALKALINE PHOSPHATASE” value [2] was 281 u/L. For the same molecule, the “ASPARTATE AMINOTRANSFERASE” value [2] was 86.33 u/L, the “BLOOD UREA NITROGEN” value [2] was 12.33 mg/dL and the “CARBON DIOXIDE” value [2] was 28.33 mmol/L. The CHLORIDE [2] was 101.33 MEQ/L, the CHOLESTEROL [2] was 80.33 mg/dL and the “CREATINE PHOSPHOKINASE” value [2] was 216.67 u/L. The CREATININE [2] was 0.46 mg/dL, the GLUCOSE [2] was 142.83 mg/dL and the “LACTATE DEHYDROGENASE” value [2] was 151.83 u/L. The LIPASE [2] was 9.83 u/L, the PHOSPHORUS [2] was 11.08 mg/dL and the POTASSIUM [2] was 5.96 MEQ/L. The SODIUM [2] was 146.62 MEQ/L, the “TOTAL BILIRUBIN” value [2] was 0.17 mg/dL and the “TOTAL PROTEIN” value [2] was 6.02 G/DL. The “URIC ACID” value [2] was 0.97 mg/dL, the “ABSOLUTE BASOPHIL” value [3] was 0 CELLS/uL and the “ABSOLUTE EOSINOPHIL” value [3] was 38 CELLS/uL. The “ABSOLUTE LYMPHOCYTE” value [3] was 9373.67 CELLS/uL, the “ABSOLUTE MONOCYTE” value [3] was 256.5 CELLS/uL and the “ABSOLUTE SEGMENTED NEUTROPHIL” value [3] was 1531.83 CELLS/uL. The BASOPHIL [3] was 0%, the EOSINOPHIL [3] was 0.33% and the “ERYTHROCYTE COUNT” value [3] was 5.4 x10E6/uL. For the same molecule, the HEMATOCRIT [3] was 33.48%, the HEMOGLOBIN [3] was 13.42 G/DL and the “LEUKOCYTE COUNT” value [3] was 11.2 x10E3/uL. The LYMPHOCYTE [3] was 84.5%, the “MEAN CORPUSCULAR HEMOGLOBIN” value [3] was 24.92 pg and the “MEAN CORPUSCULAR HEMOGLOBIN CONCENTRATION” value [3] was 40.07 G/DL. The “MEAN CORPUSCULAR VOLUME” value [3] was 62.18 fL, the MONOCYTE [3] was 2.33% and the NEUTROPHIL [3] was 12.83%. The “NUCLEATED RED BLOOD CELLS” value [3] was 0 /100WBC, the “PLATELET COUNT” value [3] was 1292.83 x10E3/uL and the “ALANINE AMINOTRANSFERASE” value [3] was 65.5 u/L. The ALBUMIN [3] was 4.38 G/DL, the “ALKALINE PHOSPHATASE” value [3] was 202.33 u/L and the “ASPARTATE AMINOTRANSFERASE” value [3] was 86.17 u/L. The “BLOOD UREA NITROGEN” value [3] was 13 mg/dL, the “CARBON DIOXIDE” value [3] was 29.33 mmol/L and the CHLORIDE [3] was 100.17 MEQ/L. For the same molecule, the CHOLESTEROL [3] was 67.17 mg/dL, the “CREATINE PHOSPHOKINASE” value [3] was 206 u/L and the CREATININE [3] was 0.19 mg/dL. For the same molecule, the GLUCOSE [3] was 138.83 mg/dL, the “LACTATE DEHYDROGENASE” value [3] was 109 u/L and the LIPASE [3] was 10 u/L. It also gave a PHOSPHORUS [3] of 10.48 mg/dL, a POTASSIUM [3] of 5.88 MEQ/L and an SODIUM [3] of 144.13 MEQ/L. For the same molecule, the “TOTAL BILIRUBIN” value [3] was 0.18 mg/dL, the “TOTAL PROTEIN” value [3] was 5.83 G/DL and the “URIC ACID” value [3] was 0.88 mg/dL.
